Source: patent publication US7414140B2 (Teva Pharmaceutical Industries Ltd., priority 2003, dated 2008)

Assay: Solubility of fluvastatin sodium in solvents
Assay type: physicochemical
Conditions: in water at 100° C.; read-out: Concentration of solution obtainable (solubility)
From the text: Fluvastatin sodium Form XLI can be prepared by precipitating fluvastatin sodium from a mixture of water and acetonitrile. Fluvastatin sodium should first be dissolved in water. The water may be heated in order to produce a more concentrated solution and maximized recovery of Form XLI. […] The addition is done at whatever elevated temperature was used to dissolve the starting material or at higher temperature. The addition is dropwise and will generally require adding a excess of acetonitrile over the amount of water that was used. For example, we used a little less than four volumes of acetonitrile. The resulting heterogeneous mixture is then allowed to cool. Before isolating the fluvastatin sodium Form XLI that precipitates. The recovery can be improved by adding an addition portion of acetonitrile after cooling.
Fluvastatin sodium Form L can be prepared by precipitation from a mixture of methanol and ethyl acetate. The fluvastatin sodium starting material, in any crystalline form or amorphous, should first be dissolved in the methanol. […] The starting material can be dissolved either at ambient or elevated temperature, e.g. the boiling point of methanol. Once dissolved, precipitation of Form L is induced by dropwise addition of ethyl acetate to the solution at elevated temperature. The amount of ethyl acetate used is preferably about three times the volume of methanol. […]

With `CC(C)n1c(/C=C/C(O)CC(O)CC(=O)O)c(-c2ccc(F)cc2)c2ccccc21` (stereo not drawn) [Fluvastatin sodium, [R*,S*-(E)]-(±)-7-[3-(4-fluorophenyl)-1-(1-methylethyl)-1H-indol-2-yl]-3,5-dihydroxy-6-heptenoic acid monosodium] as the molecule, how does the solubility read?
Its solubility is at least 375 mg/mL.
